Measurements taken from patent publication US11154543B2, “P38 MAP kinase inhibitors for wound healing” (The Schepens Eye Research Institute, Inc., priority 2015, dated 2021).
“Also recorded” adds a separate entry of the source.

Legend:
Type in all cases: cell-based
[1] = system: human corneal fibroblasts (HCF); test: αSMA western blot in human corneal fibroblasts ± TGF-β1; details: for αSMA protein expression in the presence of TGF-β1: inhibitor 24 h, then inhibitor + TGF-β1 24 h, Birb-796 10 μM, SB239063 20 μM, SB203580 5 uM, compared with HCF+TGF-β1; for αSMA expression (ratio of αSMA to β actin), TGF-β1-induced increase: serum-free, 10 uM inhibitor pre-treatment 24 h, then inhibitor + 2 ng/ml TGF-β1 24 h, compared with TGF-β1 alone (lane 2)
Procedure: FIG. 1 is an image of a representative western blot of human corneal fibroblasts cultured with 1) Basic Medium (BM: Eagles minimum essential medium) for 48 hours; 2) BM for 24 hours, then BM+TGF-β1 for 24 hours, 3) BM for 24 hours, then BM+p38 inhibitor for 24 hours, and 4) BM+p38 Inhibitor for 24 hours, then BM+p38 inhibitor+TGFβ1. Graph of SMA corrected per lane with internal control (β-actin).
FIG. 4 is a graph depicting analysis of αSMA protein expression in human corneal fibroblasts cultured with 1) Basic Medium (BM: Eagles minimum essential medium) for 48 hours; 2) BM for 24 hours, then BM+TGF-β1 for 24 hours, 3) BM for 24 hours, then BM+Birb-796 for 24 hours, 4) BM+Birb-796 for 24 hours, then BM+Birb-796+TGF-β1 for 24 hours; 5) BM for 24 hours, then BM+SB239063 for 24 hours; 6) BM+SB239063 for 24 hours, then BM+SB239063+TGF-β1 for 24 hours; 7) BM for 24 hours, then BM+SB203580 for 24 hours; and 8) BM+SB203580 for 24 hours, then BM+SB203580+TGF-β1 for 24 hours. Graph of SMA corrected per lane with internal control (β-actin).
The protocol for alpha smooth muscle actin (αSMA) testing in human corneal fibroblasts (HCF) is shown below using treatment with/without p38 inhibitor (SB202190) as an example treatment. • 1. Grow HCF (human corneal fibroblast cells) in 100 mm dishes (×12). • 2. When cells get 60-70% confluent, rinse with PBS for 3 times. Then: • a. Put serum-free EMEM to starve cells overnight. (9×) • b. Put serum-free EMEM with 10 uM of p38 inhibitor (SB202190) overnight to pre-treat cells. (3×) • 3. Next day, treat cells as follows and incubate overnight: • c. 10 ml of serum-free EMEM (3×) • d. 10 ml of serum-free EMEM with 2 ng/ml of TGF-β1. (3×) • e. 10 ml of serum-free EMEM with 10 uM of p38 inhibitor (SB202190). (3×) • f. 10 ml of serum-free EMEM with 10 uM of p38 inhibitor (SB202190) and 2 ng/ml of TGF-β1 into pre-treated dishes (2b). (3×) • 4. Harvest cells by trypsinization and store cells at −80° C.
(§1) Samples were lysed with RIPA buffer and western blot analysis was performed, as previously described (Chung E H, IOVS 1999; 40:1952-8) with minor changes. Membranes with separated proteins were probed with anti-αSMA (alpha-smooth muscle actin) and β-Actin (beta-actin) according to the protocol in Example 1. After reaction with corresponding DyLight secondary antibodies, membranes were scanned on Odyssey and software was used to measure the bands (ImageJ, v. 1.5), and the data was analyzed and plotted (Prism 5.0; GraphPad software).
The above protocol was utilized to assay αSMA expression in human corneal and skin fibroblasts under different culture conditions, including in the presence of p38 inhibitor. […] In FIG. 3, high levels of αSMA indicate that most dermal fibroblasts in culture were already myofibroblast cells (lane 1).
Three additional p38 inhibitors shown in Table 1 below were test in HCF. […] The concentrations of these three inhibitors were not optimized and it is believed that with higher concentration of these p38 inhibitors, αSMA expression will be decreased to a greater extent.

human dermal fibroblasts = test: αSMA western blot in human dermal fibroblasts ± TGF-β1; details: BM+10% FBS, p38 inhibitor 24 h pre-treatment ± TGF-β1, compared with normal culture (lane 1) and T1 (lane 2)
Procedure: FIG. 3 is an image of a representative western blot of human dermal fibroblasts cultured with 1) Basic Medium (BM: Eagles minimum essential medium)+10% FBS for 48 hours; 2) BM+10% FBS for 24 hours, then BM+10% FBS+TGFβ1 for 24 hours, 3) BM+10% FBS for 24 hours, then BM+10% FBS+p38 inhibitor for 24 hours, and 4) BM+10% FBS+p38 Inhibitor for 24 hours, then BM+10% FBS+p38 inhibitor+TGF-β1. Graph of SMA corrected per lane with internal control (β-actin).
The protocol for alpha smooth muscle actin (αSMA) testing in human corneal fibroblasts (HCF) is shown below using treatment with/without p38 inhibitor (SB202190) as an example treatment. • 1. Grow HCF (human corneal fibroblast cells) in 100 mm dishes (×12). • 2. When cells get 60-70% confluent, rinse with PBS for 3 times. Then: • a. Put serum-free EMEM to starve cells overnight. (9×) • b. Put serum-free EMEM with 10 uM of p38 inhibitor (SB202190) overnight to pre-treat cells. (3×) • 3. Next day, treat cells as follows and incubate overnight: • c. […]
as §1, with “Membranes with separated proteins were probed with anti-αSMA (alpha-smooth muscle actin) and β-Actin (beta-actin) according to the protocol in Example 1.” left out, “software). […]” for “software).”

[2] = system: human corneal fibroblasts; test: Indirect immunofluorescence of SMA in human corneal fibroblasts; details: HCF; p38 inhibitor 24 h, then p38 inhibitor + TGF-β1; compared with TGF-β1 alone (FIG. 2B)
Description: FIGS. 2A-2D are representative indirect immunofluorescent images of human corneal fibroblasts. […] Grey stripes staining=SMA and grey dots staining=DAPI, a nuclear counterstain. […] This is in agreement with the western blot in FIG. 1.

[3] = system: human corneal myofibroblasts (T1-treated HCF); test: Reversal of αSMA in TGF-β1-differentiated human corneal myofibroblasts (western blot); details: HCF pre-treated 2 ng/ml T1 for 3 days
Procedure: FIGS. 7A and 7B show analysis of αSMA expression in HCF cultured as follows: 1) HCF: RM, 2) T1: RM+T1 (for 3 days), or 3) RM+T1 for 3 days, then RM±p38inh for 1 (D1), 2 (D2), or 3 days (D3). (A) Representative western blot.
In this experiment, we examined if p38 inhibitor could not only reduce, but reverse αSMA levels, thus converting myofibroblasts back to their fibroblastic phenotype. To do this, HCF were treated with 2 ng/ml of T1 for 3 days. This allowed for the majority of the HCF to differentiate to their myofibroblastic phenotype with high levels of αSMA expression. After rinsing with PBS three times, these T1-treated cells were split into two groups: 1) regular medium (RM) and 2) p38 inhibitor (p38inh) medium. Media was changed every day. Cells were harvested after 1, 2, or 3 days for αSMA analysis by WB. […] The T1 cells then were split into two groups, RM or p38inh, and the appropriate medium was applied. […] On day 3 (D3), αSMA levels in both media samples decreased.

[4] = system: human corneal 3-D constructs (HCF and their self-assembled matrix); test: αSMA western blot in human corneal 3-D stromal constructs
Procedure: FIG. 6 includes a bar graph and a western blot showing analysis of αSMA expression in human corneal 3-D constructs. Human Corneal Fibroblasts (HCF) were cultured as follows: 1) RM (Regular Medium: Eagle's minimum essential medium+10% FBS for 9 days); 2) T1 (RM for 24 hours, then RM+2 ng/ml of TGF-beta (T1) for 8 days); 3) p38 inhibitor (p38inh) (RM for 24 hours, then RM+10 μM of p38 inhibitor [SB202190] for 8 days); and 4) T1+p38inh (RM+SB202190 for 24 hours, then RM+SB202190+TGF-1 for 8 days). Graph of αSMA corrected per lane with internal control (β-actin). […] The western blot is shown in the upper right corner.
Data shown in previous figures were generated using cells in culture. […] The system a cell-based 3-D corneal stromal construct containing human corneal fibroblasts (HCF) and their self-assembled matrix. This art-recognized model mimics stromal development and wound healing. To test this, we cultured human corneal fibroblasts (HCF) in 0.5 mM Vitamin C±2 ng/ml TGF-β1 (T1) and/or 10 μM p38 inhibitor #1 (SB202190) for 9 days. The media was changed every day. After 9 days, the samples were harvested and analyzed for αSMA by western blot (WB). […] The data also indicate that p38 inhibitor(s) inhibit scar formation during corneal wound healing.

## Cc1ccc(-n2nc(C(C)(C)C)cc2NC(=O)Nc2ccc(OCCN3CCOCC3)c3ccccc23)cc1 [Birb-796, Doramapimod]
[1]
  αSMA protein expression in the presence of TGF-β1: significantly different

## Oc1ccc(-c2nc(-c3ccc(F)cc3)c(-c3ccncc3)[nH]2)cc1 [SB202190, 4-(4-Fluorophenyl)-2-(4-hydroxyphenyl)-5-(4-pyridyl)1H-imidazole]
Human dermal fibroblasts
  αSMA expression (corrected with β-actin): significantly decreased
Human dermal fibroblasts; listed as p38 inhibitor
  αSMA expression (corrected with β-actin): significantly different
[2]
  αSMA staining / number of SMA-positive cells: mitigated
[3]; then p38inh medium 1 day, compared with T1 control
  αSMA levels on day 1 (D1): continued to increase
[3]; then p38inh medium 2 days, compared with RM sample, p<0.05
  αSMA levels on day 2 (D2): significantly lower than the RM sample; also recorded: decreased significantly
[3]; then p38inh medium 3 days, compared with RM sample
  αSMA levels on day 3 (D3): continued to be lower than that in the RM sample
[1]
  αSMA expression (ratio of αSMA to β actin), TGF-β1-induced increase: inhibits the TGF-β1 induced increase in expression of αSMA
[1]; listed as p38 inhibitor
  αSMA expression (ratio of αSMA to β actin), TGF-β1-induced increase: significantly different
[4]; 10 μM inhibitor + 2 ng/ml TGF-β1, 9 days (lane 4 vs lane 1)
  αSMA expression, T1 + p38 inhibitor versus control: decreased as compared with control
[4]; 10 μM inhibitor + 2 ng/ml TGF-β1, 9 days (lane 4 vs lane 2), p<0.001
  αSMA expression, T1 + p38 inhibitor versus T1: significantly lower than T1; also recorded: significantly different
[4]; 10 μM inhibitor, 9 days (lane 3), compared with control, p<0.05
  αSMA expression, p38 inhibitor alone: significantly decreased; also recorded: significantly lower than others

## C[S+]([O-])c1ccc(-c2nc(-c3ccc(F)cc3)c(-c3ccncc3)[nH]2)cc1 (centres unmarked) [SB203580, 4-(4′-Fluorophenyl)-2-(4′-methylsulfinylphenyl)-5-(4′-pyridyl)-imidazole]
[1]
  αSMA protein expression in the presence of TGF-β1: significantly different

## COc1nccc(-c2c(-c3ccc(F)cc3)ncn2C2CCC(O)CC2)n1 (stereo not drawn) [SB239063, trans-1-(4-Hydroxycyclohexyl)-4-(4-fluorophenyl)-5-(2-methoxypyridimidin-4-yl)imidazole]
[1]
  αSMA protein expression in the presence of TGF-β1: significantly different
